In patent US12303523B2, “Method for treating dupuytren's disease” (Dale Biotech, LLC, priority 2019, dated 2025):
In brackets after ≈: the same amount, converted by molar mass.

Experiments:
physchem = format: physicochemical
Procedure: Niclosamide ethanolamine salt (niclosamide) was dissolved and titrated (2-fold) in methanol to generate standard curves. The linear range of niclosamide quantification using UV spectrometry (333 nm) was established to be 0.006-0.1 mM. A suspension of niclosamide was prepared in H2O at a concentration of 32.7 mg/ml (100 mM) by vigorous vortexing. A stock solution of rhamnolipids were prepared in H2O at a concentration of 400 mg/ml and diluted appropriately prior to the addition of niclosamide in the presence or absence of 20% glycerol. Niclosamide was added to a final concentration of 10 mM. The solutions were vortexed vigorously, warmed at 37° C. for 5 minutes, vortexed vigorously, and then centrifuged at 17,000 RCF for 5 minutes to remove any large particulates. The supernatant of each sample was assayed for soluble niclosamide by diluting 1:10 to 1:100 in methanol and comparing to a niclosamide standard curve.

[1] = cited from earlier work
STAT3 = STAT3 (Homo sapiens, UniProt P40763); conditions: Ren X, et al. ACS Med Chem Lett., 2010; cited from earlier work
NF-κB = conditions: in vitro experiments; cited from earlier work

STAT3, sequence (P40763 whole entry, species assumed): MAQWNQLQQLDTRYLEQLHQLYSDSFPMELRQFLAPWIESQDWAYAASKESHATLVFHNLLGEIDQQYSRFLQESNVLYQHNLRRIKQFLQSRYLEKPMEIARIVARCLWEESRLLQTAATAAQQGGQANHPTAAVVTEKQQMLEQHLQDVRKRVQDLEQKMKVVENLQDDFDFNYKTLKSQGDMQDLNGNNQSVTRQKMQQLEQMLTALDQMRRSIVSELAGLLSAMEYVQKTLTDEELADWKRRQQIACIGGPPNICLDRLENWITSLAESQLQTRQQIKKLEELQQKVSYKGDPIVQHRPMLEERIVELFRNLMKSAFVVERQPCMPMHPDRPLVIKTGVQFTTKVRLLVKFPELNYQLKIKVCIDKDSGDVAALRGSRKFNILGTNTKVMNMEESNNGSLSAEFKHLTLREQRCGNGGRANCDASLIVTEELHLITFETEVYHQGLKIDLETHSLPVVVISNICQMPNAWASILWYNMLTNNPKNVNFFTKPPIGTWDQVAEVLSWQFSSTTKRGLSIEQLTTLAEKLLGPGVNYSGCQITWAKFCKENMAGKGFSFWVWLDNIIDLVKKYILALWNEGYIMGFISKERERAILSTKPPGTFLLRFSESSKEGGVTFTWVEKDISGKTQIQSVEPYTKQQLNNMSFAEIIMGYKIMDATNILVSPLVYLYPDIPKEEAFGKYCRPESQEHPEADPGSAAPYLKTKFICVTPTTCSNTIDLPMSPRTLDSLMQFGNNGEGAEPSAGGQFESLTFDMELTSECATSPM

increase of solubility (physchem; 5 min)	solubility at 5 min (physchem; 37 °C, water, thermodynamic from solid, Soluble Niclosamide mM, ±SD) [mM]	SMILES	solubility in DMSO ([1]; DMSO)	solubility in ethanol ([1]; ethanol) [µM]	solubility in organic solvents ([1]; ether, ethanol, chloroform, acetone and DMSO)	water solubility ([1]; water, 20° C.) [mg/mL]	inhibition of activation and transcriptional function of STAT3 (STAT3)	inhibition of NF-κB transcription, DNA binding, TNF-induced IκBα phosphorylation, p65 translocation, downstream gene expression (NF-κB)	solubility in distilled water ([1]; distilled water, 20° C.) [mg/mL]
more than 3 fold	–	O=C(Nc1ccc([N+](=O)[O-])cc1Cl)c1cc(Cl)ccc1O [Niclosamide]	up to 10 mM	22000 (≈ 7200 µg/mL)	sparingly soluble	0.005 to 0.008	potently inhibits	inhibits	–
–	1.06 ± 0.053 (≈ 347 µg/mL)	O=C(Nc1ccc([N+](=O)[O-])cc1Cl)c1cc(Cl)ccc1O [Niclosamide ethanolamine, niclosamide ethanolamine]	–	–	–	–	–	–	0.18 to 0.28
